Results published in US10336746B1, “RAD51 inhibitors” (Cyteir Therapeutics, Inc., priority 2017, dated 2019).

Columns and labels:
SNU-1 (Gastric) = assay: Cell line screen, SNU-1; format: cell-based; settings: Homo sapiens, SNU1, AICDA Expression Negative
Experimental: (§1) The activity of the claimed compounds was measured in a variety of cell lines with different expression levels of activation induced cytidine deaminase (AICDA). The potency assay was repeated in all of the listed cell lines and the EC50 values recorded.

TOV-1120D (Ovary) = assay: Cell line screen, TOV-1120D; format: cell-based; settings: AICDA Expression Negative
Experimental: as §1

[1] = Pharmacokinetic (PK) study, plasma by LC-MS; format: in vivo, Rat; settings: po @ 80 mg/kg (30% PEG400, 10% Vitamin E TPGS in water); for half-life: plasma
Experimental: PK studies in mice were used to determine the fate of the compounds in a whole organism. Rats were treated with the compounds either orally of via IV at the indicated doses and followed for up to 24 hours. Plasma samples were taken at different time points and analyzed by LC-MS.

[2] = Human liver microsome stability; format: in vitro ADME; settings: human liver microsomes; for half-life / microsomal CLint: 37° C., 45 minutes; for microsomal CLint: read-out: Clearance (μg/min/mg)
Experimental: The stability of the claimed compounds was determined in the presences of human liver microsomes. The compounds were incubated with the microsomes at 37° C. for 45 minutes. Samples were analyzed using LC-MS/MS. Data analysis included half-life, clearance rate, and the percentage of hepatic blood flow (% QH) for each of the compounds in the different species.

CCRF-SB (Leukemia) = assay: Cell line screen, CCRF-SB; format: cell-based; settings: Homo sapiens, AICDA Expression High
Experimental: as §1

Row | Compound | EC50 (SNU-1 (Gastric)) [nM] | EC50 (TOV-1120D (Ovary)) [nM] | F (%) @ 5 mg/kg ([1]; Rat Female) [%] | F (%) @ 5 mg/kg ([1]; Rat Male) [%] | half-life ([1]; Rat Female) [h] | half-life ([1]; Rat Male) [h] | % QH (percentage of hepatic blood flow) [2] [%] | half-life [2] [h] | microsomal CLint [2] [µL/min/mg] | EC50 (CCRF-SB (Leukemia)) [nM]
1 | CC(C)OC(=O)N[C@H]1CC[C@H](c2ncc(-c3ccc(NC(=O)NCc4ccccc4)cc3S(=O)(=O)NC(C)(C)C)s2)CC1 [Ex. 66A, trans-isopropyl N-[4-[5-[4-(benzylcarbamoylamino)-2-(tert-butylsulfamoyl)phenyl]thiazol-2-yl]cyclohexyl]carbamate] | 609 | 2380 | 3.31 | 2.55 | 2.59 | 1.86 | 49.6 | 1.29 | 18.2 | 183
2 | CC(C)OC(=O)Nc1ccc(-c2cnc([C@H]3CC[C@H](NC(=O)OC(C)C)CC3)s2)c(S(=O)(=O)NC(C)(C)C)c1 [Ex. 67A, trans-isopropyl N-[3-(tert-butylsulfamoyl)-4-[2-[4-(isopropoxycarbonylamino)cyclohexyl]thiazol-5-yl]phenyl]carbamate] | 2930 | 4920 | 86.5 | 46.9 | 11.5 | 6.46 | <20.3 | > 5 | < 4.6 | 932
